13 compounds from US20200323991A1, “PBD CONJUGATES FOR TREATING DISEASES” (ENDOCYTE, INC., priority 2016, published 2020) can be followed below.

Where two headings read alike, the source gives them in different places.

One experiment concerns KB tumor. Description: Antitumor activity in large KB tumor model. The conditions noted are these: for KB tumor size compared to untreated control: 0.5 μmol/kg SIW for two weeks. The format is in vivo, mice. The procedure: Female Balb/c nu/nu mice were fed ad libitum with folate-deficient chow (Harlan diet #TD01013) for the duration of the experiment. KB tumor cells were inoculated subcutaneously at the right flank of each mouse. Mice were dosed after the tumors reached an average of 100 and 180 mm^3 through the lateral tail vein under sterile conditions in a volume of […] of phosphate-buffered saline (PBS).
Growth of each s.c. tumor was followed by measuring the tumor two times per week. Tumors were measured in two perpendicular directions using Vernier calipers, and their volumes were calculated as 0.5×L×W^2, where L=measurement of longest axis in mm and W=measurement of axis perpendicular to L in mm.

The subject of the next experiment is KB cells. Format: cell-based, human. The conditions noted are these: read-out: IC50 value, 3H-thymidine incorporation. How it is done: The conjugates described herein were evaluated using an in vitro cytotoxicity assay that predicted the ability of the drug to inhibit the growth of the corresponding targeted cells, such as, but not limited to the following
It is to be understood that the choice of cell type can be made on the basis of the susceptibility of those selected cells to the drug that forms the conjugate, and the relative expression of the cell surface receptor or target antigen. The test conjugates were conjugates of a cell surface receptor or target antigen binding compound and PBD prodrugs, poly-PBD prodrugs, and mixed PBDs, as described herein. The test cells were exposed to varying concentrations of the conjugates, and optionally also in the absence or presence of at least a 100-fold excess of the unconjugated cell surface receptor or target antigen binding compound for competition studies to assess activity as being specific to the cell surface receptor or target antigen.
KB cells were seeded in individual 24-well Falcon plates and allowed to form nearly confluent monolayers overnight in folate free Roswell Park Memorial Institute (FFRPMI)/Heat-Inactivated Fetal Calf Serum (HIFCS). Thirty minutes prior to the addition of folate-conjugate, spent medium was aspirated from all wells and replaced with either fresh FFRPMI or FFRPMI supplemented with 100 μM folic acid. […] Cells were pulsed for 2 h at 37° C., rinsed 4 times with 0.5 mL of medium and then chased in 1 mL of fresh medium up to 72 h. Spent medium was aspirated from all wells and replaced with fresh medium containing 5 μCi/mL of ^3H-thymidine. Following a 2 h incubation at 37° C., cells were washed 3 times with 0.5 mL of PBS and then treated with 0.5 mL of ice-cold 5% trichloroacetic acid per well. After 15 min, the trichloroacetic acid was aspirated and the cells solubilized by the addition of 0.5 mL of 0.25 N sodium hydroxide for 15 min at room temperature. Four hundred and fifty […] of each solubilized sample were transferred to scintillation vials containing 3 mL of Ecolume scintillation cocktail and counted in a liquid scintillation counter. Final results were expressed as the percentage of ^3H-thymidine incorporation relative to untreated controls.
For orientation: Uptake of a labelled nucleoside into DNA is a usual measure of proliferation.

The mark [1] stands for this setting: 0.5 μmol/kg, once a week for two weeks.
[2] abbreviates: with excess folate (100 μM folic acid).
[3] abbreviates: without excess folate, 2 h pulse, chase up to 72 h.

As for `C=C1C[C@H]2C=Nc3cc(OCCCCCOc4cc(N)c(C(=O)N5CC(=C)C[C@H]5C5OCCN5C(=O)OCC(C)(C)SSCCC(=O)NCCNC(=O)CCOCCOCCOCCOCCNC(=O)CCN5C(=O)CC(SC[C@@H](NC(=O)[C@H](CCC(=O)NC[C@H](O)[C@@H](O)[C@H](O)[C@H](O)CO)NC(=O)[C@@H](CCC(=O)O)NC(=O)[C@H](CCC(=O)NC[C@H](O)[C@@H](O)[C@H](O)[C@H](O)CO)NC(=O)[C@@H](CCC(=O)O)NC(=O)[C@H](CCC(=O)NC[C@H](O)[C@@H](O)[C@H](O)[C@H](O)CO)NC(=O)CC[C@H](NC(=O)c6ccc(NCc7cnc8nc(N)[nH]c(=O)c8n7)cc6)C(=O)O)C(=O)O)C5=O)cc4OC)c(OC)cc3C(=O)N2C1` (stereo partly drawn) [Conjugate 6], in the experiment on KB tumor (setting [1]), the complete responses was found to be 50% and the cures was found to be 50%. Further, the IC50 in the experiment on KB cells (setting [2]) amounted to 3 nM. The IC50 in the experiment with KB cells (setting [3]) amounted to 0.048 nM.

Turning to `C=C1C[C@H]2C=Nc3cc(OCCCCCOc4cc(NC(=O)OCC(C)(C)SSCCC(=O)NCCNC(=O)CCOCCOCCOCCOCCOCCOCCOCCOCCOCCOCCOCCOCCNC(=O)CCN5C(=O)CC(SC[C@H](NC(=O)[C@H](CC(=O)O)NC(=O)[C@H](CC(=O)O)NC(=O)[C@H](CCCNC(=N)N)NC(=O)[C@H](CC(=O)O)NC(=O)CC[C@H](NC(=O)c6ccc(NCc7cnc8nc(N)[nH]c(=O)c8n7)cc6)C(=O)O)C(=O)O)C5=O)c(C(=O)N5CC(=C)C[C@H]5/C=N/OC)cc4OC)c(OC)cc3C(=O)N2C1` (stereo partly drawn) [Conjugate 20], the “KB tumor size compared to untreated control” value in the experiment on KB tumor was “decreased KB tumor size”. The values for the IC50 in the experiment with KB cells (setting [2]) and with KB cells (setting [3]) were 0.7 nM and 0.04 nM, respectively.

With `C=C1C[C@H]2C=Nc3cc(OCCCCCOc4cc(NC(=O)OCC(C)SSC[C@H](NC(=O)CCOCCOCCOCCOCCNC(=O)[C@H](CC(=O)O)NC(=O)[C@H](CC(=O)O)NC(=O)[C@H](CCCNC(=N)N)NC(=O)[C@H](CC(=O)O)NC(=O)CC[C@H](NC(=O)c5ccc(NCc6cnc7nc(N)[nH]c(=O)c7n6)cc5)C(=O)O)C(=O)O)c(C(=O)N5CC(=C)C[C@H]5/C=N/OC)cc4OC)c(OC)cc3C(=O)N2C1` (stereo partly drawn) [Conjugate 27], the figures for the IC50 in the experiment with KB cells (setting [2]) and in the experiment with KB cells (setting [3]) were 6.1 nM and 0.091 nM, respectively.

Turning to `C=C1C[C@H]2[C@H](O)N(C(=O)OCC(C)SSC[C@H](CC(=O)[C@H](CC(=O)O)NC(=O)[C@H](CC(=O)O)NC(=O)[C@H](CCCNC(=N)N)NC(=O)[C@H](CC(=O)O)NC(=O)CC[C@H](NC(=O)c3ccc(NCc4cnc5nc(N)[nH]c(=O)c5n4)cc3)C(=O)O)C(=O)O)c3cc(OCCCCCOc4cc5c(cc4OC)C(=O)N4CC(=C)C[C@H]4[C@H](O)N5C(=O)OCC(C)SSC[C@H](NC(=O)[C@H](CC(=O)O)NC(=O)[C@H](CC(=O)O)NC(=O)[C@H](CCCNC(=N)N)NC(=O)[C@H](CC(=O)O)NC(=O)CC[C@H](NC(=O)c4ccc(NCc5cnc6nc(N)[nH]c(=O)c6n5)cc4)C(=O)O)C(=O)O)c(OC)cc3C(=O)N2C1` (stereo partly drawn) [Conjugate 2], the cures in the experiment with KB tumor (setting [1]) worked out at 100%. The IC50 was found to be 16 nM in the experiment with KB cells (setting [2]) and 0.14 nM in the experiment on KB cells (setting [3]).

The compound `C=C1C[C@H]2C=Nc3cc(OCCCCCOc4cc(N)c(C(=O)N5CC(=C)C[C@H]5C5OCCN5C(=O)OCC(C)(C)SSCCC(=O)NCCNC(=O)CCOCCOCCOCCOCCOCCOCCOCCOCCOCCOCCOCCOCCOCCOCCOCCOCCOCCOCCOCCOCCOCCOCCOCCOCCOCCOCCOCCOCCOCCOCCOCCOCCOCCOCCOCCOCCNC(=O)CCN5C(=O)CC(SC[C@H](NC(=O)[C@H](CC(=O)O)NC(=O)[C@H](CC(=O)O)NC(=O)[C@H](CCCNC(=N)N)NC(=O)[C@H](CC(=O)O)NC(=O)CC[C@H](NC(=O)c6ccc(NCc7cnc8nc(N)[nH]c(=O)c8n7)cc6)C(=O)O)C(=O)O)C5=O)cc4OC)c(OC)cc3C(=O)N2C1` (stereo partly drawn) [Conjugate 7] returned a cures with KB tumor (setting [1]) of 100%. Further, the IC50 with KB cells (setting [2]) was determined as 5 nM; in the experiment on KB cells (setting [3]) it was 0.13 nM.

On to `C=C1C[C@H]2C=Nc3cc(OCCCCCOc4cc(N)c(C(=O)N5CC(=C)C[C@H]5C5OCCN5C(=O)OCC(C)(C)SSCCC(=O)NCCNC(=O)CCCCCN5C(=O)CC(SC[C@H](NC(=O)[C@H](CC(=O)O)NC(=O)[C@H](CC(=O)O)NC(=O)[C@H](CCCNC(=N)N)NC(=O)[C@H](CC(=O)O)NC(=O)CC[C@H](NC(=O)c6ccc(NCc7cnc8nc(N)[nH]c(=O)c8n7)cc6)C(=O)O)C(=O)O)C5=O)cc4OC)c(OC)cc3C(=O)N2C1` (stereo partly drawn) [Conjugate 22], for which the IC50 was found to be 1.4 nM in the experiment on KB cells (setting [2]) and 0.14 nM in the experiment with KB cells (setting [3]).

`C=C1CC(/C=N/OC)N(C(=O)c2cc(OC)c(OCCCCCOc3cc4c(cc3OC)C(=O)N3CC(=C)C[C@H]3C=N4)cc2NC(=O)OCC(C)(C)SSCCC(=O)NCCNC(=O)CCN2C(=O)CC(SC[C@H](NC(=O)[C@H](CC(=O)O)NC(=O)[C@H](CC(=O)O)NC(=O)[C@H](CCCNC(=N)N)NC(=O)[C@H](CC(=O)O)NC(=O)CC[C@H](NC(=O)c3ccc(NCc4cnc5nc(N)[nH]c(=O)c5n4)cc3)C(=O)O)C(=O)O)C2=O)C1` (stereo partly drawn) [Conjugate 18]: in the experiment on KB tumor, the “KB tumor size compared to untreated control” value is “decreased KB tumor size”. For the same compound, the IC50 in the experiment on KB cells (setting [2]) was determined as 2 nM; in the experiment with KB cells (setting [3]) it was 0.065 nM.

In the experiment on KB tumor (setting [1]), `C=C1C[C@H]2C=Nc3cc(OCCCCCOc4cc(N)c(C(=O)N5CC(=C)C[C@H]5C5OCCN5C(=O)OCC(C)SSC[C@H](NC(=O)[C@H](CC(=O)O)NC(=O)[C@H](CC(=O)O)NC(=O)[C@H](CCCNC(=N)N)NC(=O)[C@H](CC(=O)O)NC(=O)CC[C@H](NC(=O)c5ccc(NCc6cnc7nc(N)[nH]c(=O)c7n6)cc5)C(=O)O)C(=O)O)cc4OC)c(OC)cc3C(=O)N2C1` (stereo partly drawn) [Conjugate 4] came in with a cures of 100%. For the same compound, the IC50 in the experiment on KB cells (setting [2]) amounted to 6 nM; in the experiment on KB cells (setting [3]), 0.049 nM.

For the compound `C=C1C[C@H]2C=Nc3cc(OCCCCCOc4cc5c(cc4OC)C(=O)N4CC(=C)C[C@H]4C(O)N5C(=O)OCC(C)(C)SSCCC(=O)NCCNC(=O)CCOCCOCCOCCOCCNC(=O)CCN4C(=O)CC(SC[C@H](NC(=O)[C@H](CC(=O)O)NC(=O)[C@H](CC(=O)O)NC(=O)[C@H](CCCNC(=N)N)NC(=O)[C@H](CC(=O)O)NC(=O)CC[C@H](NC(=O)c5ccc(NCc6cnc7nc(N)[nH]c(=O)c7n6)cc5)C(=O)O)C(=O)O)C4=O)c(OC)cc3C(=O)N2C1` (stereo partly drawn) [Conjugate 24], the IC50 in the experiment on KB cells (setting [2]) was 1.8 nM; with KB cells (setting [3]) it was 0.079 nM.

In the case of `C=C1C[C@H]2C=Nc3cc(OCCCCCOc4cc(NC(=O)OCCSSC(C)(C)[C@H](NC(=O)[C@H](CC(=O)O)NC(=O)[C@H](CC(=O)O)NC(=O)[C@H](CCCNC(=N)N)NC(=O)[C@H](CC(=O)O)NC(=O)CC[C@H](NC(=O)c5ccc(NCc6cnc7nc(N)[nH]c(=O)c7n6)cc5)C(=O)O)C(=O)O)c(C(=O)N5CC(=C)C[C@H]5/C=N/OC)cc4OC)c(OC)cc3C(=O)N2C1` [Conjugate 32], the IC50 in the experiment on KB cells (setting [2]) is 57 nM; with KB cells (setting [3]), 2 nM.

In the experiment with KB tumor (0.2 μmol/kg, once a week for two weeks), `C=C1C[C@H]2C=Nc3cc(OCCCCCOc4cc(N)c(C(=O)N5CC(=C)C[C@H]5C5OCCN5C(=O)OCC(C)(C)SSCCC(=O)NCCNC(=O)CCOCCOCCOCCOCCOCCOCCOCCOCCOCCOCCOCCOCCNC(=O)CCN5C(=O)CC(SC[C@H](NC(=O)[C@H](CC(=O)O)NC(=O)[C@H](CC(=O)O)NC(=O)[C@H](CCCNC(=N)N)NC(=O)[C@H](CC(=O)O)NC(=O)CC[C@H](NC(=O)c6ccc(NCc7cnc8nc(N)[nH]c(=O)c8n7)cc6)C(=O)O)C(=O)O)C5=O)cc4OC)c(OC)cc3C(=O)N2C1` (stereo partly drawn) [Conjugate 8] yielded a cures of 100%. Further, the IC50 is 0.3 nM in the experiment on KB cells (setting [2]) and 0.055 nM with KB cells (setting [3]).

As for `C=C1C[C@H]2C=Nc3cc(OCCCCCOc4cc(NC(=O)OCCCSSC[C@H](NC(=O)[C@H](CC(=O)O)NC(=O)[C@H](CC(=O)O)NC(=O)[C@H](CCCNC(=N)N)NC(=O)[C@H](CC(=O)O)NC(=O)CC[C@H](NC(=O)c5ccc(NCc6cnc7nc(N)[nH]c(=O)c7n6)cc5)C(=O)O)C(=O)O)c(C(=O)N5CC(=C)C[C@H]5/C=N/OC)cc4OC)c(OC)cc3C(=O)N2C1` [Conjugate 31], the IC50 in the experiment with KB cells (setting [3]) was 0.647 nM.

For the compound `C=C1C[C@H]2C=Nc3cc(OCCCCCOc4cc(NC(=O)OCCSSC[C@@H](C)NC(=O)CCOCCOCCOCCOCCNC(=O)[C@H](CC(=O)O)NC(=O)[C@H](CC(=O)O)NC(=O)[C@H](CCCNC(=N)N)NC(=O)[C@H](CC(=O)O)NC(=O)CC[C@H](NC(=O)c5ccc(NCc6cnc7nc(N)[nH]c(=O)c7n6)cc5)C(=O)O)c(C(=O)N5CC(=C)C[C@H]5/C=N/OC)cc4OC)c(OC)cc3C(=O)N2C1` [Conjugate 26], the results for the IC50 in the experiment with KB cells (setting [2]) and in the experiment with KB cells (setting [3]) were 1.6 nM and 0.028 nM, respectively.
